These results are taken from patent publication US20240124418A1 (BioTheryX, Inc., priority 2020, published 2024).

Bounds are passed on as bounds.

One experiment deals with T1, PDE4B (Homo sapiens, UniProt Q07343).
T1 construct: endogenous in cells; host or cells: A549
As to the kind of experiment: Protein degradation assay, western blot, PDE4B in A549 cells. Format: cell-based. The following applies: 24 h treatment, 'as high as about' = upper value for the group, read-out: PDE4B degradation relative to DMSO. The procedure: (§1) Example B2. Protein Degradation Assay
(§2) A549 cells were grown in RPMI 1640 media supplemented with 10% fetal bovine serum, streptomycin, and penicillin. The cells were plated in 6-well plates at 300,000 cells/well in the growth media. After overnight incubation, the cells were treated with DMSO (control) or a compound at predetermined concentrations (e.g., 10 nM, 100 nM, 1 μM, 3 μM, or 10 μM) for 24 h at 37° C. under 5% CO2. Whole cell extracts were prepared using an immunoprecipitation (IP) lysis buffer. The cells were washed once in PBS, and the cell pellets were resuspended in the IP lysis buffer and incubated for 15 min on ice. Cells debris was removed by centrifugation and the cleared whole cell lysates were transferred to new tubes for further analysis.
(§3) For a western blot analysis, the whole cell protein extracts were separated on 4-12% SDS-polyacrylamide gels, transferred to nitrocellulose, and probed with primary antibodies. Membranes were subsequently washed and probed with IRDYE® secondary antibodies. The signals were detected using an ODYSSEY® Imaging System. The antibodies used in the assay included anti-PDE4B antibody; anti-PDE4D antibodies (top, bottom, and short isoform); β-actin mouse monoclonal antibody; IRDYE® 680RD goat anti-rabbit antibody; and IRDYE® 800CW goat anti-mouse antibody. The compounds provided herein are PDE4 protein degraders.
(A western blot detects proteins with antibodies after separation by electrophoresis.)

Another experiment deals with TNF-α. As to the kind of experiment: Cell-based TNF-α inhibition assay (LPS-induced PBMCs, Meso Scale). The following applies: PBMC, PBMCs pretreated 1 h, LPS 100 ng/mL 18-24 h, percentage of stimulated DMSO control; for inhibition at 0.1 µM: compound concentration 0.1 μM; for inhibition at 1 µM: compound concentration 1 μM. In outline:
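Thawed primary PBMCs (200,000 cells/well, RPMI 1640 with 10% FBS) were pretreated with compound for 1 h, then stimulated with 100 ng/mL LPS for 18–24 h. Supernatant TNF-α was measured by Meso Scale, and activity was expressed as percent inhibition relative to the stimulated DMSO control.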

Experiment [1] has as its system PDE4D, in particular, PDE4D short isoform. As to the kind of experiment: Protein degradation assay, western blot, PDE4D in A549 cells. The conditions noted are these: 24 h treatment, same conditions. Format: cell-based. The procedure:
as §1, §2, §3

T1 sequence (Q07343 whole entry): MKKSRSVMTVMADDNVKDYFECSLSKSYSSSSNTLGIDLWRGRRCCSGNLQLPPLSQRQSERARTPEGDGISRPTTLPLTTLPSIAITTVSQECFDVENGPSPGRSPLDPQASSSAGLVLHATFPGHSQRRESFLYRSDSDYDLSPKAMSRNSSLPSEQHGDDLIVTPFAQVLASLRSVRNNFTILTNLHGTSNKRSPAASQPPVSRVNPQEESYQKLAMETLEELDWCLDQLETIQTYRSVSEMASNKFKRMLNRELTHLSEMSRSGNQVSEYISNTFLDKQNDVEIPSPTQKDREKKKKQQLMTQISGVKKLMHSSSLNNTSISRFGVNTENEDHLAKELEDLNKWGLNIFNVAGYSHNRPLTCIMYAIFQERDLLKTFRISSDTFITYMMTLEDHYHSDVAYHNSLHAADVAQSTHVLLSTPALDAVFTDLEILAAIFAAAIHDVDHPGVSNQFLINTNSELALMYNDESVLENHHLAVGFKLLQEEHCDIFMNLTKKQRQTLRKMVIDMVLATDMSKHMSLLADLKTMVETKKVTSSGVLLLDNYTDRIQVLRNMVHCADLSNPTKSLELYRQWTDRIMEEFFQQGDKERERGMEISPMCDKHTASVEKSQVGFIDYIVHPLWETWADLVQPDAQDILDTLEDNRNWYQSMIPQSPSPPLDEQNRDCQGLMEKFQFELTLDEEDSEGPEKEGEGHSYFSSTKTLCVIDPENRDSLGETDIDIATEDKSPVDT

Regarding `CCOc1cc([C@@H](CS(C)(=O)=O)N2C(=O)c3cccc(NC(=O)CC4CN(Cc5ccc(OCc6scc7c6CN(C6CCC(=O)NC6=O)C7=O)cc5)CCO4)c3C2=O)ccc1OC` (stereo partly drawn) [Compound A40, 2-{4-[(4-{[5-(2,6-Dioxopiperidin-3-yl)-4-oxo-4H,5H,6H-thieno[3,4-c]pyrrol-1-yl]methoxy}phenyl)methyl]morpholin-2-yl}-N-{2-[(1S)-1-(3-ethoxy-4-methoxyphenyl)-2-methanesulfonylethyl]-1,3-dioxo-2,3-dihydro-1H-isoindol-4-yl}acetamide], the Dmax at PDE4B was at most 70%. Also, in the experiment with TNF-α, the inhibition – broadly, how much of the control response was suppressed – at 0.1 µM is at least 60% and the inhibition at 1 µM was at least 60%.
Consider `O=C1CCC(N2Cc3c(cc(F)cc3C3CCN(CCCOc4cc(C(=O)Nc5c(Cl)cncc5Cl)ccc4OC(F)F)CC3)C2=O)C(=O)N1` (centres unmarked) [Compound B11, N-(3,5-Dichloropyridin-4-yl)-4-(difluoromethoxy)-3-(3-(4-(2-(2,6-dioxopiperidin-3-yl)-6-fluoro-1-oxoisoindolin-4-yl)piperidin-1-yl)propoxy)benzamide], for which, on PDE4B, the Dmax was at most 70%. Besides, in the experiment on TNF-α, the inhibition at 0.1 µM was at least 60% and the inhibition at 1 µM was at least 60%.
In the case of `O=C1CCC(N2Cc3c(cc(F)cc3C3CCN(CCCCCCCOc4cc(C(=O)Nc5c(Cl)cncc5Cl)ccc4OC(F)F)CC3)C2=O)C(=O)N1` (centres unmarked) [Compound B1, N-(3,5-Dichloropyridin-4-yl)-4-(difluoromethoxy)-3-((7-(4-(2-(2,6-dioxopiperidin-3-yl)-6-fluoro-1-oxoisoindolin-4-yl)piperidin-1-yl)heptyl)oxy)benzamide], at PDE4B, the Dmax is at most 70%. In the experiment on TNF-α, the inhibition at 0.1 µM is below 20% and the inhibition at 1 µM was below 20%.
For the compound `O=C1CCC(N2C(=O)c3cccc(N4CCC(CCCCCCCOc5cc(C(=O)Nc6c(Cl)cncc6Cl)ccc5OC(F)F)CC4)c3C2=O)C(=O)N1` (centres unmarked) [Compound B14, N-(3,5-Dichloropyridin-4-yl)-4-(difluoromethoxy)-3-((7-(1-(2-(2,6-dioxo-piperidin-3-yl)-1,3-dioxoisoindolin-4-yl)piperidin-4-yl)heptyl)oxy)benzamide], on PDE4B, the Dmax is at most 70%. Moreover, in the experiment with TNF-α, the inhibition at 0.1 µM is at least 60% and the inhibition at 1 µM was at least 60%.
With `CCOc1cc([C@@H](CS(C)(=O)=O)N2C(=O)c3cccc(NC(C)=O)c3C2=O)ccc1OC` [apremilast], the “PDE4D degradation (in words)” value in experiment [1] was “did not degradate the PDE4D”.
`O=C1CCC(N2Cc3c(NCCCOCCOCCOCCOc4ccc(C(=O)Nc5c(Cl)cncc5Cl)cc4OCC4CC4)cccc3C2=O)C(=O)N1` (centres unmarked) [Compound B9, 3-(Cyclopropylmethoxy)-N-(3,5-dichloropyridin-4-yl)-4-(2-(2-(2-(3-((2-(2,6-dioxopiperidin-3-yl)-1-oxoisoindolin-4-yl)amino)propoxy)ethoxy)ethoxy)ethoxy)benzamide]: the Dmax at PDE4B is at most 70%. In the experiment on TNF-α, the inhibition at 0.1 µM was at least 60% and the inhibition at 1 µM was at least 60%.
For the compound `CCOc1cc([C@@H](CS(C)(=O)=O)N2C(=O)c3cccc(NC(=O)COCCOCCOCCOCCNc4cccc5c4C(=O)N(C4CCC(=O)NC4=O)C5=O)c3C2=O)ccc1OC` (stereo partly drawn) [Compound A4, 14-((2-(2,6-Dioxopiperidin-3-yl)-1,3-dioxoisoindolin-4-yl)amino)-N-(2-((S)-1-(3-ethoxy-4-methoxyphenyl)-2-(methylsulfonyl)ethyl)-1,3-dioxoisoindolin-4-yl)-3,6,9,12-tetraoxatetradecan-1-amide], the Dmax at PDE4B is at most 70%. The inhibition at 0.1 µM in the experiment with TNF-α was at least 60%.
For the compound `CCOc1cc([C@@H](CS(C)(=O)=O)N2C(=O)c3cc(CCCCCCCC4CCN(c5cccc6c5C(=O)N(C5CCC(=O)NC5=O)C6=O)CC4)cc(NC(C)=O)c3C2=O)ccc1OC` (stereo partly drawn) [Compound A8, N-(6-(7-(1-(2-(2,6-Dioxopiperidin-3-yl)-1,3-dioxoisoindolin-4-yl)piperidin-4-yl)-heptyl)-2-((S)-1-(3-ethoxy-4-methoxyphenyl)-2-(methylsulfonyl)ethyl)-1,3-dioxoisoindolin-4-yl)acetamide], at PDE4B, the Dmax is at most 70%. Further, in the experiment on TNF-α, the inhibition at 0.1 µM is at least 60% and the inhibition at 1 µM is at least 60%.
With `O=C1CCC(Nc2cccc(NC(=O)CN3CCN(CCOc4cc(C(=O)Nc5c(Cl)cncc5Cl)ccc4OC(F)F)CC3)c2)C(=O)N1` (centres unmarked) [Compound B24, N-(3,5-Dichloropyridin-4-yl)-4-(difluoromethoxy)-3-(2-(4-(2-((3-((2,6-dioxopiperidin-3-yl)amino)phenyl)amino)-2-oxoethyl)piperazin-1-yl)ethoxy)benzamide], the Dmax on PDE4B is at most 70%. In addition, in the experiment on TNF-α, the inhibition at 0.1 µM is at least 60% and the inhibition at 1 µM is at least 60%.
For the compound `CCOc1cc([C@@H](CS(C)(=O)=O)N2C(=O)c3cccc(NC(=O)CCCCCCCCN4CCC(C#Cc5cc6c(cc5F)C(=O)N(C5CCC(=O)NC5=O)C6)CC4)c3C2=O)ccc1OC` (stereo partly drawn) [Compound A20, 9-(4-{2-[2-(2,6-Dioxopiperidin-3-yl)-6-fluoro-1-oxo-2,3-dihydro-1H-isoindol-5-yl]ethynyl}piperidin-1-yl)-N-{2-[(1S)-1-(3-ethoxy-4-methoxyphenyl)-2-methanesulfonylethyl]-1,3-dioxo-2,3-dihydro-1H-isoindol-4-yl}nonanamide], on PDE4B, the Dmax was at most 70%. Also, in the experiment on TNF-α, the inhibition at 0.1 µM is at least 60% and the inhibition at 1 µM was at least 60%.
With `O=C1CCC(Nc2cccc(NC(=O)CN3CCN(CCCCOc4cc(C(=O)Nc5c(Cl)cncc5Cl)ccc4OC(F)F)CC3)c2)C(=O)N1` (centres unmarked) [Compound B25, N-(3,5-Dichloropyridin-4-yl)-4-(difluoromethoxy)-3-(4-(4-(2-((3-((2,6-dioxopiperidin-3-yl)amino)phenyl)amino)-2-oxoethyl)piperazin-1-yl)butoxy)benzamide], on PDE4B, the Dmax is at most 70%. Moreover, in the experiment with TNF-α, the inhibition at 0.1 µM was at least 60% and the inhibition at 1 µM is at least 60%.
Regarding `CCOc1cc([C@@H](CS(C)(=O)=O)N2C(=O)c3cc(CCCCCCCN4CCC(c5cc(F)cc6c5CN(C5CCC(=O)NC5=O)C6=O)CC4)cc(NC(C)=O)c3C2=O)ccc1OC` (stereo partly drawn) [Compound A1, N-(6-(7-(4-(2-(2,6-Dioxopiperidin-3-yl)-6-fluoro-1-oxoisoindolin-4-yl)piperidin-1-yl)heptyl)-2-((S)-1-(3-ethoxy-4-methoxyphenyl)-2-(methylsulfonyl)ethyl)-1,3-dioxoisoindolin-4-yl)acetamide], at PDE4B, the Dmax is at most 70%. Besides, the inhibition at 0.1 µM with TNF-α was at least 60%.
